Results on 5 compounds are retold here after US12667824B2, “Carbon dioxide absorbent” (MITSUBISHI GAS CHEMICAL COMPANY, INC., priority 2020, dated 2026).

The nature of series [1]: Acid dissociation constant (pKa) of amine compound by acid-base titration. It counts as physicochemical. The following applies: in purified water, 25±2° C.
Experimental: The acid dissociation constant of the amine compound was determined by the following method. • (1) Dissolving 0.2 g of the amine compound in 30 mL of the purified water. • (2) Calculating the acid dissociation constant (pKa) by titrating the solution obtained in the above (1) with the 0.1 N perchloric acid-acetic acid solution using the automatic potentiometric titrator (AT-610 produced by Kyoto Electronics Manufacturing Co., Ltd.).
Still, let the temperature at the time of measurement be 25±2° C.
Series [2] is described as follows: Maximum endothermic temperature of amine compound (DSC, volatilization). In kind it is physicochemical. To be noted: DSC 23 to 350° C., 10° C./min, nitrogen; volatilization of the amine compound.
Experimental: DSC measurements were performed on the amine compounds used in Examples and Comparative Examples to measure the maximum endothermic temperature of the amine compounds as follows. First, a differential scanning calorimetry was performed on the amine compounds using a differential thermogravimetric analyzer (Product Name: DTG-60 produced by Shimadzu Corporation) under conditions of 23 to 350° C. of a measurement temperature range, 10° C./min of a heating rate, and a nitrogen atmosphere. From the DSC curve obtained thereby, the temperature at which the endothermic amount associated with the volatilization of the amine compound reached the maximum was calculated, and the temperature thereof was used as the maximum endothermic temperature of the amine compound.
The nature of series [3]: Maximum carbon dioxide (CO2) release temperature of amine compound (DSC). It counts as physicochemical. The following applies: amine compound with CO2 absorbed, DSC 23 to 250° C., 10° C./min, nitrogen. The procedure:
(Maximum Carbon Dioxide (CO2) Release Temperature of Amine Compound)
After the above evaluation of the carbon dioxide absorption capacity was completed, the amine compound was removed from the desiccator to obtain the amine compound with carbon dioxide absorbed. The DSC measurement was performed on the amine compound with carbon dioxide absorbed as follows, to measure the maximum carbon dioxide release temperature of the amine compound. […] From the DSC curve obtained thereby, the temperature at which the endothermic amount associated with the desorption of carbon dioxide reached the maximum was calculated, and the temperature thereof was used as the maximum carbon dioxide release temperature of the amine compound.

A short description of series [4]: Amine value of amine compound (JIS K7237-1995 titration). In kind it is physicochemical. To be noted: 0.1 N perchloric acid-acetic acid titration.
Experimental: The amine value was measured by the following measurement method in accordance with JIS K7237-1995. • (1) Dissolving 0.1 g of the amine compound in 20 mL of the acetic acid. • (2) Calculating the amine value by titrating the solution obtained in the above (1) with the 0.1 N perchloric acid-acetic acid solution using the automatic potentiometric titrator (AT-610 produced by Kyoto Electronics Manufacturing Co., Ltd.).
The nature of series [5]: Cycle evaluation (absorption, regeneration at 100° C. for 1 hour). To be noted: before and after heating at 100° C. for 1 hour; for Weight Retention 1st Time: 1st regeneration; for Weight Retention 2nd Time: 2nd regeneration. The procedure: After the above evaluation of the carbon dioxide absorption capacity was completed, the amine compound was removed from the desiccator, and the amine compound with carbon dioxide absorbed was heated at 100° C. for 1 hour to release the carbon dioxide absorbed and regenerate the amine compound. At this time, weights of the amine compound before and after the heat treatment were measured, and a weight retention (1st time) was calculated.
Then, on the regenerated amine compound, the above evaluation of the carbon dioxide absorption capacity was performed again, and changes of the carbon dioxide concentration in the desiccator were measured after 2 hours and 24 hours (2nd time).
Then, the amine compound was removed from the desiccator, and the amine compound with carbon dioxide absorbed was heated at 100° C. for 1 hour to release carbon dioxide absorbed and regenerate the amine compound again. At this time, the weights of the amine compound before and after the heat treatment were measured, and the weight retention (2nd time) was calculated.
Next, on the regenerated amine compound, the above evaluation of the carbon dioxide absorption capacity was evaluated again, and changes of the carbon dioxide concentration in the desiccator were measured after 2 hours and 24 hours (3rd time).

Read-outs that look alike come from different tables or passages of the source.

In the case of `NCC1CCC(CN)CC1` (single isomer, unassigned) [Example 2, 1,4-bis(aminomethyl)cyclohexane], the pKa in series [1] (purified water, read-out: pKa) was found to be 10.9. In addition, the “Maximum Endothermic Temperature” value in series [2] turned out to be 155.6 °C. The “Maximum CO2 Release Temperature” value in series [3] is 135.2 °C. In addition, the “Amine Value” in series [4] stood at 789 mgKOH/g.
In series [1], `NCC1CCC(CN)CC1` (single isomer, unassigned) [Example 3, 1,4-bis(aminomethyl)cyclohexane] gave a pKa of 11.3. The “Maximum Endothermic Temperature” value in series [2] turned out to be 155.9 °C. In series [3], the “Maximum CO2 Release Temperature” value turned out to be 130 °C. The “Amine Value” in series [4] turned out to be 789 mgKOH/g.
Take `NCCNCCNCCN` [Comparative Example 2, Triethylenetetramine, reference compound]: in series [5], the “Weight Retention 1st Time” value is on record as 98% and the “Weight Retention 2nd Time” value came to 95%. The “Maximum Endothermic Temperature” value in series [2] came out at 184.1 °C. For the same compound, the “Maximum CO2 Release Temperature” value in series [3] was 69.5 °C. For the same compound, in series [4], the “Amine Value” came to 1535 mgKOH/g.
As for `N#CCCNCC1CCCC(CN)C1` (stereo not shown) [Example 4], the pKa in series [1] (purified water, read-out: pKa) amounted to 10.9.
For `NCCCNCC1CCCC(CNCCCN)C1` (stereo not shown) [Example 5], in series [5], the “Weight Retention 1st Time” value is 100% and the “Weight Retention 2nd Time” value was determined as 100%. Besides, the “Maximum Endothermic Temperature” value in series [2] turned out to be 246.7 °C. Further, in series [3], the “Maximum CO2 Release Temperature” value is 97.8 °C. Besides, the “Amine Value” in series [4] is on record as 844 mgKOH/g.
